Source: the supplement of paper PMC10307832

How the values were obtained:
Assay in all cases: relative viability (nuclei count vs DMSO), 5 days (fraction); higher = more cells survive
NCI-H1355 = tested on: NCI-H1355
How it was run: (§1)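 Dosing by pin tool came one day after lung cancer cell lines were seeded in 1536-well plates, using either one drug or a fixed anchor-drug dose plus five library-drug doses (not always all listed) in √10 steps. After 5 days, nuclei were counted on 4× images. Relative viability is treated-well nuclei count divided by vehicle-well nuclei count, and values are medians of duplicate plates.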

NCI-H2009 = tested on: NCI-H2009
How it was run: as §1

NCI-H1755 = tested on: NCI-H1755
How it was run: as §1

NCI-H358 = tested on: NCI-H358
How it was run: as §1

NCI-H647 = tested on: NCI-H647
How it was run: as §1

NCI-H2228 = tested on: NCI-H2228
How it was run: as §1

COR-L23 = tested on: COR-L23
How it was run: as §1

NCI-H1793 = tested on: NCI-H1793
How it was run: as §1

HOP-62 = tested on: HOP-62
How it was run: as §1

SK-MES-1 = tested on: SK-MES-1
How it was run: as §1

HCC-15 = tested on: HCC-15
How it was run: as §1

COR-L 105 = tested on: COR-L 105
How it was run: as §1

NCI-H2342 = tested on: NCI-H2342
How it was run: as §1

NCI-H1993 = tested on: NCI-H1993
How it was run: as §1

EKVX = tested on: EKVX
How it was run: as §1

HARA = tested on: HARA
How it was run: as §1

NCI-H1734 = tested on: NCI-H1734
How it was run: as §1

NCI-H1395 = tested on: NCI-H1395
How it was run: as §1

UMC-11 = tested on: UMC-11
How it was run: as §1

NCI-H2170 = tested on: NCI-H2170
How it was run: as §1

NCI-H2347 = tested on: NCI-H2347
How it was run: as §1

PC-14 = tested on: PC-14
How it was run: as §1

NCI-H838 = tested on: NCI-H838
How it was run: as §1

For `O=C(O)c1ccc(-c2c[nH]c3ncc(-c4ccccc4)cc23)cc1C1CCCC1` + Cc1nc(Nc2ncc(C(=O)Nc3c(C)cccc3Cl)s2)cc(N2CCN(CCO)CC2)n1 [Dasatinib] (partner 0.075 µM), which relative viability (NCI-H1355; first compound 0.04 µM) is on record?
The relative viability was 0.754.

What about the relative viability (NCI-H1355; first compound 0.1265 µM) of the same molecule?
Its relative viability is 0.841.

What about the relative viability (NCI-H1355; first compound 0.4 µM) of the same molecule?
The relative viability was 0.664.

And the relative viability (NCI-H1355; first compound 1.265 µM)?
Its relative viability is 0.567.

What about the relative viability (NCI-H2009; first compound 0.04 µM) of the same molecule?
Its relative viability is 0.322.

And the relative viability (NCI-H2009; first compound 0.1265 µM)?
Its relative viability is 0.312.

What about the relative viability (NCI-H2009; first compound 0.4 µM) of the same molecule?
Its relative viability is 0.277.

What about the relative viability (NCI-H2009; first compound 1.265 µM) of the same molecule?
Its relative viability is 0.264.

And the relative viability (NCI-H1755; first compound 0.04 µM)?
The relative viability was 0.394.

And the relative viability (NCI-H1755; first compound 0.1265 µM)?
Its relative viability is 0.541.

And the relative viability (NCI-H1755; first compound 0.4 µM)?
Its relative viability is 0.423.

And the relative viability (NCI-H1755; first compound 1.265 µM)?
Its relative viability is 0.436.

What about the relative viability (NCI-H358; first compound 0.04 µM) of the same molecule?
Its relative viability is 0.143.

What about the relative viability (NCI-H358; first compound 0.1265 µM) of the same molecule?
The relative viability was 0.209.

What about the relative viability (NCI-H358; first compound 0.4 µM) of the same molecule?
Its relative viability is 0.209.

What about the relative viability (NCI-H358; first compound 1.265 µM) of the same molecule?
The relative viability was 0.152.

And the relative viability (NCI-H647; first compound 0.04 µM)?
Its relative viability is 0.172.

What about the relative viability (NCI-H647; first compound 0.1265 µM) of the same molecule?
Its relative viability is 0.24.

What about the relative viability (NCI-H647; first compound 0.4 µM) of the same molecule?
Its relative viability is 0.178.

What about the relative viability (NCI-H647; first compound 1.265 µM) of the same molecule?
The relative viability was 0.139.

And the relative viability (NCI-H2228; first compound 0.04 µM)?
The relative viability was 0.601.

What about the relative viability (NCI-H2228; first compound 0.1265 µM) of the same molecule?
Its relative viability is 0.607.

And the relative viability (NCI-H2228; first compound 0.4 µM)?
The relative viability was 0.519.

What about the relative viability (NCI-H2228; first compound 1.265 µM) of the same molecule?
The relative viability was 0.395.

And the relative viability (COR-L23; first compound 0.04 µM)?
Its relative viability is 0.485.

And the relative viability (COR-L23; first compound 0.1265 µM)?
Its relative viability is 0.578.

And the relative viability (COR-L23; first compound 0.4 µM)?
Its relative viability is 0.469.

What about the relative viability (COR-L23; first compound 1.265 µM) of the same molecule?
Its relative viability is 0.3.

And the relative viability (NCI-H1793; first compound 0.04 µM)?
Its relative viability is 0.376.

And the relative viability (NCI-H1793; first compound 0.1265 µM)?
Its relative viability is 0.473.

And the relative viability (NCI-H1793; first compound 0.4 µM)?
The relative viability was 0.373.

And the relative viability (NCI-H1793; first compound 1.265 µM)?
The relative viability was 0.342.

And the relative viability (HOP-62; first compound 0.04 µM)?
The relative viability was 0.598.

What about the relative viability (HOP-62; first compound 0.1265 µM) of the same molecule?
The relative viability was 0.669.

What about the relative viability (HOP-62; first compound 0.4 µM) of the same molecule?
Its relative viability is 0.78.

And the relative viability (HOP-62; first compound 1.265 µM)?
Its relative viability is 0.666.

And the relative viability (SK-MES-1; first compound 0.04 µM)?
The relative viability was 0.406.

And the relative viability (SK-MES-1; first compound 0.1265 µM)?
Its relative viability is 0.384.

And the relative viability (SK-MES-1; first compound 0.4 µM)?
The relative viability was 0.387.

And the relative viability (SK-MES-1; first compound 1.265 µM)?
The relative viability was 0.4.

What about the relative viability (HCC-15; first compound 0.04 µM) of the same molecule?
Its relative viability is 0.648.

And the relative viability (HCC-15; first compound 0.1265 µM)?
The relative viability was 0.698.

And the relative viability (HCC-15; first compound 0.4 µM)?
Its relative viability is 0.591.

What about the relative viability (HCC-15; first compound 1.265 µM) of the same molecule?
The relative viability was 0.38.

And the relative viability (COR-L 105; first compound 0.04 µM)?
Its relative viability is 0.318.

And the relative viability (COR-L 105; first compound 0.1265 µM)?
Its relative viability is 0.376.

What about the relative viability (COR-L 105; first compound 0.4 µM) of the same molecule?
The relative viability was 0.383.

What about the relative viability (COR-L 105; first compound 1.265 µM) of the same molecule?
The relative viability was 0.391.

And the relative viability (NCI-H2342; first compound 0.04 µM)?
The relative viability was 0.34.

And the relative viability (NCI-H2342; first compound 0.1265 µM)?
Its relative viability is 0.377.

What about the relative viability (NCI-H2342; first compound 0.4 µM) of the same molecule?
Its relative viability is 0.325.

And the relative viability (NCI-H2342; first compound 1.265 µM)?
Its relative viability is 0.289.

What about the relative viability (NCI-H1993; first compound 0.04 µM) of the same molecule?
Its relative viability is 0.592.

And the relative viability (NCI-H1993; first compound 0.1265 µM)?
Its relative viability is 0.568.

And the relative viability (NCI-H1993; first compound 0.4 µM)?
Its relative viability is 0.601.

And the relative viability (NCI-H1993; first compound 1.265 µM)?
Its relative viability is 0.572.

And the relative viability (EKVX; first compound 0.04 µM)?
Its relative viability is 0.547.

What about the relative viability (EKVX; first compound 0.1265 µM) of the same molecule?
The relative viability was 0.512.

What about the relative viability (EKVX; first compound 0.4 µM) of the same molecule?
The relative viability was 0.564.

What about the relative viability (EKVX; first compound 1.265 µM) of the same molecule?
Its relative viability is 0.675.

What about the relative viability (HARA; first compound 0.04 µM) of the same molecule?
Its relative viability is 0.237.

What about the relative viability (HARA; first compound 0.1265 µM) of the same molecule?
The relative viability was 0.294.

What about the relative viability (HARA; first compound 0.4 µM) of the same molecule?
Its relative viability is 0.308.

What about the relative viability (HARA; first compound 1.265 µM) of the same molecule?
Its relative viability is 0.3.

And the relative viability (NCI-H1734; first compound 0.04 µM)?
The relative viability was 0.502.

And the relative viability (NCI-H1734; first compound 0.1265 µM)?
Its relative viability is 0.437.

What about the relative viability (NCI-H1734; first compound 0.4 µM) of the same molecule?
Its relative viability is 0.468.

What about the relative viability (NCI-H1734; first compound 1.265 µM) of the same molecule?
The relative viability was 0.409.

And the relative viability (NCI-H1395; first compound 0.04 µM)?
Its relative viability is 0.392.

What about the relative viability (NCI-H1395; first compound 0.1265 µM) of the same molecule?
The relative viability was 0.396.

And the relative viability (NCI-H1395; first compound 0.4 µM)?
The relative viability was 0.365.

And the relative viability (NCI-H1395; first compound 1.265 µM)?
The relative viability was 0.426.

What about the relative viability (UMC-11; first compound 0.04 µM) of the same molecule?
Its relative viability is 0.505.

And the relative viability (UMC-11; first compound 0.1265 µM)?
Its relative viability is 0.496.

What about the relative viability (UMC-11; first compound 0.4 µM) of the same molecule?
The relative viability was 0.501.

What about the relative viability (UMC-11; first compound 1.265 µM) of the same molecule?
Its relative viability is 0.433.

What about the relative viability (NCI-H2170; first compound 0.04 µM) of the same molecule?
The relative viability was 0.522.

What about the relative viability (NCI-H2170; first compound 0.1265 µM) of the same molecule?
The relative viability was 0.623.

And the relative viability (NCI-H2170; first compound 0.4 µM)?
The relative viability was 0.529.

And the relative viability (NCI-H2170; first compound 1.265 µM)?
The relative viability was 0.564.

What about the relative viability (NCI-H2347; first compound 0.04 µM) of the same molecule?
The relative viability was 0.275.

And the relative viability (NCI-H2347; first compound 0.1265 µM)?
The relative viability was 0.799.

And the relative viability (NCI-H2347; first compound 0.4 µM)?
Its relative viability is 0.298.

What about the relative viability (NCI-H2347; first compound 1.265 µM) of the same molecule?
The relative viability was 0.299.

And the relative viability (PC-14; first compound 0.04 µM)?
Its relative viability is 0.245.

What about the relative viability (PC-14; first compound 0.1265 µM) of the same molecule?
The relative viability was 0.258.

And the relative viability (PC-14; first compound 0.4 µM)?
Its relative viability is 0.281.

What about the relative viability (PC-14; first compound 1.265 µM) of the same molecule?
Its relative viability is 0.286.

What about the relative viability (NCI-H838; first compound 0.04 µM) of the same molecule?
Its relative viability is 0.273.

What about the relative viability (NCI-H838; first compound 0.1265 µM) of the same molecule?
The relative viability was 0.299.

And the relative viability (NCI-H838; first compound 0.4 µM)?
The relative viability was 0.31.

What about the relative viability (NCI-H838; first compound 1.265 µM) of the same molecule?
The relative viability was 0.293.
